Assay results as given in patent US10912752B2, “Methods and compositions for reducing ocular discomfort” (Brien Holden Vision Institute Limited, priority 2012, dated 2021).

Key:
[1] = test system: caspase-8; experiment: Caspase-Glo luminescent caspase activity in HCLE under hyperosmotic stress; type: cell-based, human; details: 16 h; for reduction of caspase-8 activity: 500 mOsm
Protocol: (§1) Caspase-3/7, -8 and -9 activities were assayed using a luminescent assay kit (Promega, Madison, Wis.) according to the manufacturer's instructions. Briefly, 100 μL of Caspase-Glo-3/7, -8 and -9 reagents were added to HCLE at maintained on plastic at 2×10^4/cm^2, mixed and incubated for one hour at room temperature. Luminescence was measured using a SpectraFluor Plus microplate reader.
(§2) Cultured human corneal limbal epithelial (HCLE) cells were exposed to culture medium with or without carnitine (10 mM) at 300 mOsm (isotonic), 450 mOsm (moderate), and 500 mOsm (hyperosmotic) for 16 h. Induction of apoptosis was detected by quantification of the proteolytic activity of caspase-8, caspase-9, or caspase-3/7 using caspase activity assays, and production of tumor necrosis factor (TNF)-α, a known apoptosis inducer, using ELISA. Annexin V and Propidium iodine (PI) staining was performed to detect the percentage of apoptotic cells using confocal microscopy and flow cytometry.

[2] = test system: HCLE cells; experiment: Flow cytometry Annexin V/PI apoptosis/necrosis under hyperosmotic stress; type: cell-based, human; details: 16 h; for percentage of healthy cells (Annexin V and PI negative): 500 mOsm + 10 mM vs 500 mOsm; for total percentage of apoptotic and necrotic (damaged) cells: 500 mOsm + 10 mM, flow cytometry
Protocol: Cell volume and Live/Dead staining via flow cytometry were performed using the Attune® Acoustic focusing Cytometer (Life Technologies™ Applied Biosystems). Annexin V and PI kit (Invitrogen™) was used to analyse the non-apoptotic, and the early and late apoptotic cells. Staining was performed as per manufacturer's instructions. Analysis of Annexin staining was conducted using the blue/violet laser with excitation/emission spectra of 480/500 nm (20 mW) and the PI staining analysis was conducted using blue/red laser with an excitation/emission spectra of 490/635 nm.
500 mOsm and exposure time (16 h) to be the most informative under which to observe hyperosmolality induced cellular responses of HCLE (results not shown). Thus, in the present study, a hyperosmotic medium of 500 mOsm and exposure time of 16 h were used throughout. Hyperosmolar media were prepared by the addition of NaCl to the medium. Medium osmolarity was measured using a Vapro 5520 vapour pressure osmometer (Wescor, Logan, Utah). Subconfluent cells were exposed to hyperosmolar media in the presence or absence of betaine (5 or 10 mM). Mitochondrial and proliferation activities for cell viability; TNF-α production; caspase activity and Annexin V/PI staining for apoptosis; and cellular shrinkage were monitored as detailed below.
It was observed that an osmolarity of 450 mOsM and 500 mOsM and exposure time of 16 hours was the most optimal for studying hyperosmolarity induced cellular responses of HCLE (results not shown). Therefore, a hyperosmolar medium of 450 mOsM and 500 mOsM and an exposure time of 16 hours were used throughout the study. The hyperosmolarity of the medium was achieved by addition of an appropriate amount of NaCl to it, and further measuring using Vapro 5520 vapor pressure osmometer (Wescor, Logan, Utah). Cells, having reached 70%-80% confluence were exposed to hyperosmolar media in the presence or absence of 10 mM L-Carnitine. Cellular shrinkage in relation to hyperosmotic stress, Annexin V/PI staining for apoptosis, Caspase activities and TNF-α production were analysed.
as §2

[3] = test system: ICES-induced murine dry eye model; experiment: Corneal fluorescein staining in ICES-induced murine dry eye model; type: in vivo, C57BL/6 mice; details: for corneal staining from Day 21 to Day 35: Schedule 2, within-group change
Text: A total of 110 female C57BL/6 mice (age 4-6 weeks, from the Animal Breeding Unit of Wenzhou Medical College) were used in the study. These mice were carefully selected out of 350 mice by clinical examination using slit-lamp microscopy and corneal staining. Only those healthy mice with no corneal infections, infiltration or leukom, and with total scores of corneal fluorescein staining of less than 10, were selected for the study.
This study used the ICES-induced murine dry eye model in which relative humidity, airflow and temperature were maintained at 15.7±3.2% (mean±SD), 2.1±0.2 m/s and 21-24° C., respectively, and mice began developing dry eye conditions similar to those in humans from Day 21 post-housing (Chen et al A Murine Model of Dry Eye Induced by an Intelligently Controlled Environmental System. Investigative Ophthalmology & Visual Science, 2008: 49(4):1386-1391). The relative humidity and temperature of ICES systems were monitored daily.
Mice in different groups were labelled using ear marks. The mice were housed in cages (maximum of five animals per cage) and two independent cages were placed in each ICES system. Two schedules were used for topical administration of test compounds, Betaine (0.234% (10 mM) in sterile PBS) or Carnitine (0.25% (10 mM) in sterile PBS), or sterile PBS as a control. Mice without any topical treatment were used as another control. In the first schedule, compounds were administered to mice at the beginning of their housing in ICES (Schedule 1) to study the effect of these compounds on the development of dry eye. In the second schedule compound administration began after mice had been housed in ICES for 21 days (Schedule 2), by which time the dry eye condition had been developed (Chen et al. IOVS 2008), to study the effect of these compounds on treatment of dry eye. Compounds were administered topically to both eyes of the animal. The compound solution made in PBS was topically administered four times daily for up to a total of 35 days for Schedule 1, or 14 days for Schedule 2, during which the mice remained housed in ICES.
Four (4×) mice in each cage received individual treatment: A, B, C, D where A=Betaine (10 mM in PBS); B=Carnitine (10 mM in PBS); C=PBS only; D=No treatment.
The cornea was examined using slit-lamp microscopy with cobalt blue light immediately after fluorescein instillation. The stained area was assessed and graded using the 2007 Dry Eye Work Shop (DEW) recommended grading system. The mouse corneas were rated ranging from 0 to 4 with the cornea surface divided into five regions (0 dot, Grade 0; 1-5 dots, Grade 1; 6-15 dots, Grade 2; 16-30 dots, Grade 3; and […], Grade 4). The total score from the five regions was recorded.

[4] = test system: caspase-9; experiment: Caspase-Glo luminescent caspase activity in HCLE under hyperosmotic stress; type: cell-based, human; details: 16 h
Protocol: as §1
as §2, with “Cultured human corneal limbal epithelial (HCLE) cells were exposed to culture medium with or without carnitine (10 mM) at 300 mOsm (isotonic), 450 mOsm (moderate), and 500 mOsm (hyperosmotic) for 16 h.” left out

[5] = test system: caspase-3/7; experiment: as above; type: cell-based, human; details: 16 h
Protocol: as §1
as §2, with “Cultured human corneal limbal epithelial (HCLE) cells were exposed to culture medium with or without carnitine (10 mM) at 300 mOsm (isotonic), 450 mOsm (moderate), and 500 mOsm (hyperosmotic) for 16 h.” left out

[6] = Schedule 1, Day 14, 10 mM in PBS topically four times daily
[7] = Schedule 1, Day 21, 10 mM in PBS topically four times daily

Row | Structure (SMILES) | reduction of caspase-8 activity ([1]; 5 mM) | reduction of caspase-8 activity ([1]; 10 mM) | percentage of healthy cells (Annexin V and PI negative) [2] | total percentage of apoptotic and necrotic (damaged) cells [2] [%] | corneal staining vs control C (PBS only) or D (no treatment) [3, 6] | corneal staining vs control C (PBS only) or D (no treatment) [3, 7] | corneal staining from Day 21 to Day 35 [3] | reduction of caspase-9 activity ([4]; 5 mM, 500 mOsm) | reduction of caspase-9 activity ([4]; 10 mM, 500 mOsm) | reduction of caspase-3/7 activity ([5]; 5 mM, 500 mOsm) | reduction of caspase-3/7 activity ([5]; 10 mM, 500 mOsm) | change in Caspase-8 activity (in words) ([1]; 10 mM, hypertonic medium) | increase in the percentage of un-damaged (non-apoptotic/non-necrotic) cells ([2]; 10 mM, 500 mOsm, vs hyperosmotically stressed HCLE) [%] | corneal staining vs control C or D ([3]; Schedule 1, Day 35, 10 mM in PBS topically four times daily) | corneal staining vs controls C or D ([3]; Schedule 2 (treatment from Day 22 after dry eye developed), Day 35) | reduction in cellular caspase-9 activities ([4]; 10 mM, 500 mOsm) [%] | change in Caspase-9 activity (in words) ([4]; 10 mM, hypertonic medium) | decreasing trend for caspase-3/7 activities ([5]; 10 mM, 500 mOsm) [%] | change in Caspase-3/7 activity (in words) ([5]; 10 mM, hypertonic medium)
1 | C[N+](C)(C)CC(=O)[O-] [betaine, trimethylglycine] | 2- to 3 fold | 4- to 5.2 fold | considerable increase | 15.70 | statistically significant reduction | statistically significant reduction | statistically significant reduction | 2- to 3 fold | 4- to 5.2 fold | 2- to 3 fold | 4- to 5.2 fold | – | – | – | – | – | – | – | –
2 | C[N+](C)(C)CC(O)CC(=O)[O-] (stereo not drawn) [carnitine, 3-hydroxy-4-(trimethylazaniumyl)butanoate] | – | – | increased | ~19.0 | statistically significant reduction | statistically significant reduction | statistically significant reduction | – | – | – | – | minimum or no visible decline | 63 | reduced corneal staining | statistically significant reduction | 33 | significant lowering | 20 | significant lowering
